# Measured values from patent publication US5164295A, “Method for identifying amyloid protein-extracellular matrix protein affinity altering compounds” (The Upjohn Company, priority 1991, dated 1992).
# Columns and labels:
# [1] = tested on: HSPG binding to AAP proteins and fibronectin; assay: Effect of test compounds on HSPG binding, stated collectively for the immobilized proteins; conditions: for effect on HSPG binding to any AAP protein tested (negated sentence: 'Neither ... had any effect'): even at 4000 μg/ml
# Method: (§1) The assay comprised immobilizing AAP695 /s which was then exposed to free HSPG in the absence or presence of test compounds. Other aspects of the assay included exposing free HSPG to either immobilized AAP751 /s, or AAP770 /s, each in the absence or presence of test compounds. The assay was also performed with fibronectin as the immobilized protein in order to provide a positive control. In each case, a series of concentrations of HSPG and test compounds was used. Additionally, to determine whether or not the carbohydrate moiety of HSPG was involved in the binding to immobilized components, the carbohydrate moiety of HSPG was removed and assays were performed using the carbohydrate-free HSPG core protein. The test compounds used in experiments described here include heparin, dextran sulfate, chondroitin sulfate, dermatan sulfate, fibronectin, gelatin, bovine serum albumin (BSA), Ca^++ (CaCl2), Mg^++ (MgCl2), Mn^++ (MnCl2), Co^++ (Co(NO3)2), and Zn^++ (ZnCl2).
# (§2) The assay used in studying the interaction between HSPG and protein ligands was an ELISA technique. Briefly, polystyrene micro-titer plates (Linbro, Flow Lab Inc.) were coated with a 100 μl solution, containing 1 μg/ml of the protein of interest (one of the three forms of AAP or fibronectin) in 20 mM NaHCO3 buffer pH 9.6. After incubation overnight at 4° C., the plates were rinsed with 0.15M NaCl, 20 mM Tris-Cl pH 7.5 (TBS). The plates were then incubated with 150 μl of 1% BSA in TBS for 2 hours at 37° C. to block the residual hydrophobic surface on the wells. After rinsing with TBS containing 0.05% (w/v) Tween 20 (TBS-Tween), 100 μl of various concentrations of HSPG in TBS-Tween were added. The plates were left overnight at 4° C., to permit maximum binding of HSPG to the coated proteins. The plates were then washed extensively and incubated for 2 hours at 37° C., with 100 μl of anti-HSPG diluted in TBS-Tween containing 0.1% BSA. The plates were washed again and incubated for another 2 hours with 100 μl of goat anti-rabbit-IgG conjugated with alkaline phosphatase (1:2000 dilution) in TBS-Tween containing BSA as above. Finally, after further washing, the bound antibodies were detected by adding an alkaline phosphatase substrate solution (100 μl) containing 2 mg/ml p-nitrophenyl phosphate, 0.1 mM ZnCl2, 1 mM MgCl2 and 100 mM glycine pH 10. The plates were left at room temperature for 15-120 minutes depending on the protein tested. The enzyme reaction was stopped by addition of 50 μl of 2M NaOH. The absorbance of the released p-nitrophenol was measured at 405 nm with a Titertek Multiscan/MCC 340 (Flow Lab. Ltd.). The amounts of HSPG bound were determined by the net OD405 after substracting the OD from the blank wells in which the HSPG incubation step was omitted. When the actual amounts of HSPG bound were to be calculated, a set of standards (0.05-50 ng/well) of HSPG in NaHCO3 buffer were pre-coated into wells on the same plates as the test proteins. The incubations proceeded as described above omitting the incubation of the HSPG solution with the HSPG standard coated wells. The actual amounts of HSPG bound to the test proteins were calculated from the OD405 standard curve produced by the HSPG standards using a Titersoft II E.J.A. software program (Flow Lab. Ltd.).
# In addition to test compounds described above, other compounds were tested to determine their effect upon HSPG-AAP binding.
# [2] = tested on: HSPG binding to fibronectin; assay: Effect of test compounds on intact HSPG binding to immobilized fibronectin (ELISA); design: species or system bovine; effect of increasing concentration on degree of HSPG binding to fibronectin: dose or concentration left out as unconfirmed; conditions: for Activity: binding of intact HSPG, percentage ± SD of control: Fibronectin, HSPG 2 μg/ml; for inhibition of HSPG binding to immobilized fibronectin: test compound 50 μg/ml; for HSPG binding, % of control: fibronectin
# Method: as §1
# Fibronectin (from bovine plasma), heparin (grade II from porcine intestinal mucosa, average molecular weight=[…]), heparan sulfate, chondroitin sulfate, dextran sulfate, BSA, and alkaline phosphatase substrate were obtained from Sigma, St. Louis, Mo. Alkaline phosphatase conjugated goat anti-rabbit IgG was obtained from Boehringer-Manneheim, and heparitinase from ICN Biochemicals.
# as §2
# (§3) Heparin and dextran sulfate, respectively, were each used as test compounds to determine their effect on the HSPG binding to AAP forms and fibronectin. Various concentrations of heparin or dextran sulfate were added together with a constant amount of HSPG to wells coated with AAPs for fibronectin.
# [3] = molecular target: T1, HSPG binding to AAP751 /s (Homo sapiens, UniProt P05067); assay: Effect of test compounds on intact HSPG binding to immobilized AAP751 /s (ELISA); design: effect of increasing concentration on degree of HSPG binding to AAP751 /s: dose or concentration left out as unconfirmed; conditions: for Activity: binding of intact HSPG, percentage ± SD of control: AAP751 /S, HSPG 2 μg/ml; for HSPG binding, % of control: AAP751
# T1 construct: maintained the entire extracellular portion of the AAP; made in house; host or cells: insect cells (recombinant baculovirus)
# Method: as §1, §2, §3
# [4] = molecular target: T2, HSPG binding to AAP695 /s (Homo sapiens, UniProt P05067); assay: Effect of test compounds on intact HSPG binding to immobilized AAP695 /s (ELISA); conditions: for Activity: binding of intact HSPG, percentage ± SD of control: AAP695 /S, HSPG 2 μg/ml; for HSPG binding, % of control: AAP695
# T2 construct: maintained the entire extracellular portion of the AAP; made in house; host or cells: insect cells (recombinant baculovirus)
# Method: as §1, §2, §3
# [5] = test compound 500 μg/ml (Table II)
molecule,measurement,setting,value
[Ca+2].[Cl-].[Cl-] [CaCl2],effect of divalent metal ion on HSPG binding,[1]; 3 mM,unaffected
same,"Activity: binding of intact HSPG, percentage ± SD of control",[2]; addition 4 mM,101.5 ± 2.1%
same,"Activity: binding of intact HSPG, percentage ± SD of control",[3]; addition 4 mM,105.5 ± 3.5%
same,"Activity: binding of intact HSPG, percentage ± SD of control",[4]; addition 4 mM,92.5 ± 7.7%
"O=[N+]([O-])[O-].O=[N+]([O-])[O-].[Co+2] [Co (NO3), Co(NO3)2]",effect of divalent metal ion on HSPG binding,[1]; 0.1 mM,unaffected
same,"Activity: binding of intact HSPG, percentage ± SD of control",[2]; addition 0.1 mM,100 ± 14%
same,"Activity: binding of intact HSPG, percentage ± SD of control",[3]; addition 0.1 mM,91 ± 8.5%
same,"Activity: binding of intact HSPG, percentage ± SD of control",[4]; addition 0.1 mM,97.3 ± 2.5%
[Cl-].[Cl-].[Mg+2] [MgCl2],effect of divalent metal ion on HSPG binding,[1]; 10 mM,unaffected
same,"Activity: binding of intact HSPG, percentage ± SD of control",[2]; addition 10 mM,105 ± 9.9%
same,"Activity: binding of intact HSPG, percentage ± SD of control",[3]; addition 10 mM,102.5 ± 7.8%
same,"Activity: binding of intact HSPG, percentage ± SD of control",[4]; addition 10 mM,102.5 ± 6.4%
[Cl][Mn][Cl] [MnCl2],effect of divalent metal ion on HSPG binding,[1]; 4 mM,unaffected
same,"Activity: binding of intact HSPG, percentage ± SD of control",[2]; addition 4 mM,101.5 ± 9.2%
same,"Activity: binding of intact HSPG, percentage ± SD of control",[3]; addition 4 mM,106 ± 19.7%
same,"Activity: binding of intact HSPG, percentage ± SD of control",[4]; addition 4 mM,107 ± 18.3%
[Cl-].[Cl-].[Zn+2] [ZnCl2],"Activity: binding of intact HSPG, percentage ± SD of control",[2]; addition 0.1 mM,44 ± 14.6%
same,inhibition of HSPG binding to fibronectin,[2]; test compound 0.1 mM,55%
same,"Activity: binding of intact HSPG, percentage ± SD of control",[3]; addition 0.1 mM,85.5 ± 9%
same,"Activity: binding of intact HSPG, percentage ± SD of control",[4]; addition 0.1 mM,31 ± 8.1%
same,inhibition of HSPG binding to AAP695 /s,[4]; test compound 0.1 mM,70%
"Fibronectin: Fibronectin from bovine plasma (Sigma), added in solution as test compound",interference with HSPG binding to the AAPs,"[1]; test compound 50 μg/ml in solution, the AAPs",only moderately interferes
same,"Activity: binding of intact HSPG, percentage ± SD of control",[2]; addition 50 μg/ml,33.4 ± 18.4%
same,inhibition of HSPG binding to immobilized fibronectin,[2],65%
same,"Activity: binding of intact HSPG, percentage ± SD of control",[3]; addition 50 μg/ml,103.7 ± 14.5%
same,"Activity: binding of intact HSPG, percentage ± SD of control",[4]; addition 50 μg/ml,76.3 ± 9.5%
Gelatin,"Activity: binding of intact HSPG, percentage ± SD of control",[2]; addition 50 μg/ml,28.5 ± 16.5%
same,inhibition of HSPG binding to immobilized fibronectin,[2],70%
same,"Activity: binding of intact HSPG, percentage ± SD of control",[3]; addition 50 μg/ml,60.2 ± 8.3%
same,inhibition of HSPG binding to AAP751 /s,[3]; test compound 50 μg/ml,40%
same,"Activity: binding of intact HSPG, percentage ± SD of control",[4]; addition 50 μg/ml,50.5 ± 18.4%
same,inhibition of HSPG binding to AAP695 /s,[4]; test compound 50 μg/ml,50%
chondroitin sulfate,effect on HSPG binding to any AAP protein tested (negated sentence: 'Neither ... had any effect'),[1],had any effect
same,"Activity: binding of intact HSPG, percentage ± SD of control",[2]; addition 4 mg/ml,107 ± 10.8%
same,"Activity: binding of intact HSPG, percentage ± SD of control",[3]; addition 4 mg/ml,110 ± 24.2%
same,"Activity: binding of intact HSPG, percentage ± SD of control",[4]; addition 4 mg/ml,110 ± 15.3%
dermatan sulfate,effect on HSPG binding to any AAP protein tested (negated sentence: 'Neither ... had any effect'),[1],had any effect
same,"Activity: binding of intact HSPG, percentage ± SD of control",[2]; addition 4 mg/ml,107 ± 20.6%
same,"Activity: binding of intact HSPG, percentage ± SD of control",[3]; addition 4 mg/ml,127 ± 30%
same,"Activity: binding of intact HSPG, percentage ± SD of control",[4]; addition 4 mg/ml,121 ± 14%
dextran sulfate,mode of inhibition of HSPG binding to fibronectin,[2],noncompetitive
same,"Activity: binding of intact HSPG, percentage ± SD of control",[2]; addition 500 μg/ml,71 ± 10.8%
same,effect of increasing concentration on degree of HSPG binding to fibronectin,[2]; concentration increased,did not further decrease
same,"HSPG binding, % of control",[2]; test compound 31.2 μg/ml,67%
same,"HSPG binding, % of control",[2]; test compound 62.5 μg/ml,70%
same,"HSPG binding, % of control",[2]; test compound 125 μg/ml,68%
same,"HSPG binding, % of control",[2]; test compound 250 μg/ml,63%
same,"HSPG binding, % of control",[2]; [5],60%
same,inhibition of HSPG binding to fibronectin,[2]; test compound 32 μg/ml,30%
same,mode of inhibition of HSPG binding to AAP751 /s,[3],noncompetitive
same,"Activity: binding of intact HSPG, percentage ± SD of control",[3]; addition 500 μg/ml,63 ± 8.6%
same,"HSPG binding, % of control",[3]; test compound 31.2 μg/ml,74%
same,"HSPG binding, % of control",[3]; test compound 62.5 μg/ml,71%
same,"HSPG binding, % of control",[3]; test compound 125 μg/ml,67%
same,"HSPG binding, % of control",[3]; test compound 250 μg/ml,68%
same,"HSPG binding, % of control",[3]; [5],63%
same,effect of increasing concentration on degree of HSPG binding to AAP751 /s,[3]; concentration increased,did not further decrease
same,inhibition of HSPG binding to AAP751 /s,[3]; test compound 32 μg/ml,30%
same,mode of inhibition of HSPG binding to AAP695 /s,[4],probably competitive
same,"Activity: binding of intact HSPG, percentage ± SD of control",[4]; addition 500 μg/ml,8.5 ± 2.4%
same,"HSPG binding, % of control",[4]; test compound 31.2 μg/ml,14%
same,"HSPG binding, % of control",[4]; test compound 62.5 μg/ml,11%
same,"HSPG binding, % of control",[4]; test compound 125 μg/ml,9%
same,"HSPG binding, % of control",[4]; test compound 250 μg/ml,11%
same,"HSPG binding, % of control",[4]; [5],11%
same,inhibition of HSPG binding to AAP695 /s,[4]; test compound 32 μg/ml,about 85%
